Laboratory results reported in ChEMBL document CHEMBL1201862, “PubChem BioAssay data set” (2004).
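Exposure lasted 48 hours, with cells grown in 96-well plates and compounds tested at five concentrations. The concentration for 50% growth inhibition is given as GI50.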 Active and inactive are the calls of the source. Cut-off read from the data, not from the text of the source: active = GI50 up to about 1.1 µM and inactive = higher.

Key:
Experiment in all cases: NCI tumour cell line growth inhibition, 48 h
[1] = tested on: NCI-H522
[2] = tested on: DU-145
[3] = tested on: SNB-75
[4] = tested on: NCI-H23
[5] = tested on: LOX IMVI
[6] = tested on: UACC-62
[7] = tested on: SW-620
[8] = tested on: UO-31
[9] = tested on: BT-549
[10] = tested on: MDA-N
[11] = tested on: SK-MEL-2
[12] = tested on: CAKI-1
[13] = tested on: KM12
[14] = tested on: SNB-19
[15] = tested on: HT-29
[16] = tested on: NCI/ADR-RES
[17] = tested on: TK-10
[18] = tested on: Malme-3M
[19] = tested on: OVCAR-3
[20] = tested on: OVCAR-5
[21] = tested on: HCT-15
[22] = tested on: MDA-MB-435
[23] = tested on: 786-0
[24] = tested on: A549
[25] = tested on: NCI-H226
[26] = tested on: OVCAR-4
[27] = tested on: MDA-MB-231
[28] = tested on: UACC-257
[29] = tested on: K562
[30] = tested on: SK-OV-3
[31] = tested on: Hs-578T
[32] = tested on: T47D
[33] = tested on: PC-3
[34] = tested on: SN12C
[35] = tested on: SF-295
[36] = tested on: HOP-62
[37] = tested on: RPMI-8226
[38] = tested on: IGROV-1
[39] = tested on: A498
[40] = tested on: SK-MEL-5
[41] = tested on: EKVX
[42] = tested on: COLO 205
[43] = tested on: U-251
[44] = tested on: OVCAR-8
[45] = tested on: M14
[46] = tested on: ACHN
[47] = tested on: SF-268
[48] = tested on: MCF7
[49] = tested on: HCT-116
[50] = tested on: SF-539
[51] = tested on: RXF 393
[52] = tested on: HOP-92
[53] = tested on: SK-MEL-28
[54] = tested on: NCI-H460
[55] = tested on: SR
[56] = tested on: MOLT-4
[57] = tested on: HL-60
[58] = tested on: CCRF-CEM

Measured: GI50

c1cc(NNc2cccc(-c3nnn[nH]3)c2)cc(-c2nnn[nH]2)c1
> 100 µM: [21]
inactive: [1] > 100 µM | [2] > 100 µM | [3] > 100 µM | [4] > 100 µM | [5] > 100 µM | [6] > 100 µM | [7] > 100 µM | [8] > 100 µM | [9] > 100 µM | [10] > 100 µM | [11] > 100 µM | [12] > 100 µM | [13] > 100 µM | [14] > 100 µM | [15] > 100 µM | [16] > 100 µM | [17] > 100 µM | [18] > 100 µM | [19] > 100 µM | [20] > 100 µM | [22] > 100 µM | [23] > 100 µM | [24] > 100 µM | [25] > 100 µM | [26] > 100 µM | [27] > 100 µM | [28] > 100 µM | [29] > 100 µM | [30] > 100 µM | [31] > 100 µM | [32] > 100 µM | [33] > 100 µM | [34] > 100 µM | [35] > 100 µM | [36] > 100 µM | [37] > 100 µM | [38] > 100 µM | [39] > 100 µM | [40] > 100 µM | [41] > 100 µM | [42] > 100 µM | [43] > 100 µM | [44] > 100 µM | [45] > 100 µM | [46] > 100 µM | [47] > 100 µM | [48] > 100 µM | [49] > 100 µM | [50] > 100 µM | [51] > 100 µM | [52] > 100 µM | [53] > 100 µM | [54] > 100 µM

CC(C)NC(=O)OCC[S+]([O-])c1c(Cl)c(Cl)nn1C (centres undefined)
inactive: [1] 18.5 µM | [2] > 100 µM | [3] > 100 µM | [4] 42.9 µM | [6] 26.6 µM | [7] 36.2 µM | [8] > 100 µM | [9] > 10 µM | [10] 38.7 µM | [55] 48.9 µM | [11] > 100 µM | [12] 37.6 µM | [13] > 100 µM | [14] > 100 µM | [15] 34 µM | [16] 42.8 µM | [17] > 100 µM | [19] 40.2 µM | [20] 49 µM | [22] 22.3 µM | [23] 24.9 µM | [24] > 100 µM | [25] > 100 µM | [26] 49.8 µM | [27] 28.6 µM | [28] > 10 µM | [29] 34 µM | [56] 34.8 µM | [30] > 100 µM | [31] > 100 µM | [32] 38.1 µM | [33] > 100 µM | [34] 70.1 µM | [35] > 100 µM | [36] 69.3 µM | [37] 64.9 µM | [38] 37.9 µM | [39] > 100 µM | [40] 40.9 µM | [41] > 100 µM | [42] 21.2 µM | [43] 33.2 µM | [44] > 10 µM | [45] 21.1 µM | [46] 46.1 µM | [47] > 100 µM | [48] 29.4 µM | [57] 47.5 µM | [49] 33.3 µM | [50] > 100 µM | [58] 27.5 µM | [53] 28.5 µM | [54] > 100 µM
20 µM: [21]
active: [5] 0.724 µM
